From PMC13185819, “De Novo Multi‐Mechanism Antimicrobial Peptide Design via Multimodal Deep Learning” (Advanced Science, 2026)
In brackets after ≈: the same amount, converted by molar mass. Residues, ends and D or L forms follow the SMILES beside them.

Experiments:
Assay type in all cases: cell-based
E. faecium 1042 = test system: E. faecium 1042
Procedure: (§1) Standard strains included S. aureus ATCC33592, S. aureus CICC25138, and Salmonella enterica ATCC14028, which were purchased from the China Center of Industrial Culture Collection (CICC). Standard strains including E.coli CMCC44102, Salmonella enterica CMCC50071, and S. aureus CMCC26003 were purchased from the National Center for Medical Culture Collections (CMCC). […] All experiments using the above strains were carried out in a BSL‐2 laboratory. The clinical laboratory of Qilu Hospital detected bacterial resistance to various antibiotics. All strains were streaked on Nutrient Broth (NB) agar medium and incubated overnight at 37°C.
(§2) The antimicrobial activity of the peptides was examined in sterile 96‐well plates using the broth microdilution according to the CLSI standard. The colonies were suspended in saline solution, the turbidity was adjusted to McFarland 0.5 to reach a bacterial concentration of 10^8 CFU/mL, and again diluted 100 times for the inhibition test. Then, 50 µL of bacterial suspension at 1 × 10^6 CFU/mL was incubated with the same volume of different concentrations of peptide solution [serial twofold dilutions in Mueller–Hinton Broth (Hopebio)]. […] All experiments were performed with three independent replicates.

E. faecium 21 = test system: E. faecium 21
Procedure: as §1, §2

E.coli 110 = test system: E.coli 110
Procedure: as §1, §2

E.coli 208 = test system: E.coli 208
Procedure: as §1, §2

E.coli CMCC44102 = test system: E.coli CMCC44102
Procedure: as §1, §2

K. pneumoniae 7713 = test system: K. pneumoniae 7713
Procedure: as §1, §2

P. aeruginosa 112 = test system: P. aeruginosa 112
Procedure: as §1, §2

P. aeruginosa 116 = test system: P. aeruginosa 116
Procedure: as §1, §2

P. aeruginosa 119 = test system: P. aeruginosa 119
Procedure: as §1, §2

S. aureus 103 = test system: S. aureus 103
Procedure: as §1, §2

S. aureus 129 = test system: S. aureus 129
Procedure: as §1, §2

S. aureus ATCC33592 = test system: S. aureus ATCC33592
Procedure: as §1, §2

S. aureus CICC25138 = test system: S. aureus CICC25138
Procedure: as §1, §2

S. aureus CMCC26003 = test system: S. aureus CMCC26003
Procedure: as §1, §2

| SMILES | MIC (μg/mL) E. faecium 1042 (E. faecium 1042) | MIC (μg/mL) E. faecium 21 (E. faecium 21) | MIC (μg/mL) E.coli 110 (E.coli 110) | MIC (μg/mL) E.coli 208 (E.coli 208) | MIC (μg/mL) E.coli CMCC44102 (E.coli CMCC44102) | MIC (μg/mL) K. pneumoniae 7713 (K. pneumoniae 7713) | MIC (μg/mL) P. aeruginosa 112 (P. aeruginosa 112) | MIC (μg/mL) P. aeruginosa 116 (P. aeruginosa 116) | MIC (μg/mL) P. aeruginosa 119 (P. aeruginosa 119) | MIC (μg/mL) S. aureus 103 (S. aureus 103) | MIC (μg/mL) S. aureus 129 (S. aureus 129) | MIC (μg/mL) S. aureus ATCC33592 (S. aureus ATCC33592) | MIC (μg/mL) S. aureus CICC25138 (S. aureus CICC25138) | MIC (μg/mL) S. aureus CMCC26003 (S. aureus CMCC26003) |
| --- | --- | --- | --- | --- | --- | --- | --- | --- | --- | --- | --- | --- | --- | --- |
| CC[C@H](C)[C@H](NC(=O)[C@H](CCCNC(=N)N)NC(=O)[C@H](Cc1c[nH]c2ccccc12)NC(=O)[C@H](CCCCN)NC(=O)[C@H](CCC(N)=O)NC(=O)[C@H](CCCNC(=N)N)NC(=O)[C@@H](N)CCCNC(=N)N)C(=O)N[C@@H](CC(C)C)C(=O)N[C@@H](C)C(=O)N[C@@H](CC(C)C)C(=O)N[C@@H](CC(N)=O)C(=O)N[C@H](C(=O)N[C@@H](Cc1c[nH]c2ccccc12)C(=O)N[C@@H](CCCCN)C(N)=O)[C@@H](C)CC [QLX-3DV-11] (H-RRQKWRILALNIWK-NH2) | 4 µg/mL (≈ 2.13 µM) | 4 µg/mL (≈ 2.13 µM) | 4 µg/mL (≈ 2.13 µM) | 8 µg/mL (≈ 4.25 µM) | 4 µg/mL (≈ 2.13 µM) | 8 µg/mL (≈ 4.25 µM) | 4 µg/mL (≈ 2.13 µM) | 32 µg/mL (≈ 17 µM) | 32 µg/mL (≈ 17 µM) | 16 µg/mL (≈ 8.51 µM) | 4 µg/mL (≈ 2.13 µM) | 8 µg/mL (≈ 4.25 µM) | 16 µg/mL (≈ 8.51 µM) | 2 µg/mL (≈ 1.06 µM) |
| CC(C)[C@H](N)C(=O)N[C@@H](CCCCN)C(=O)N[C@H](C(=O)N[C@@H](Cc1ccccc1)C(=O)N[C@@H](CCCNC(=N)N)C(=O)N[C@@H](Cc1ccccc1)C(=O)N[C@@H](Cc1ccc(O)cc1)C(=O)N[C@@H](Cc1c[nH]c2ccccc12)C(=O)N[C@@H](CCCCN)C(=O)N[C@@H](CCCNC(=N)N)C(=O)N[C@@H](CCCCN)C(=O)N[C@@H](CCC(N)=O)C(=O)N[C@@H](CCCNC(=N)N)C(=O)N[C@@H](Cc1ccccc1)C(N)=O)C(C)C [QLX-3DV-12] (H-VKVFRFYWKRKQRF-NH2) | 2 µg/mL (≈ 1.01 µM) | 4 µg/mL (≈ 2.01 µM) | 4 µg/mL (≈ 2.01 µM) | 8 µg/mL (≈ 4.03 µM) | 8 µg/mL (≈ 4.03 µM) | 16 µg/mL (≈ 8.05 µM) | 2 µg/mL (≈ 1.01 µM) | 8 µg/mL (≈ 4.03 µM) | 32 µg/mL (≈ 16.1 µM) | 16 µg/mL (≈ 8.05 µM) | 16 µg/mL (≈ 8.05 µM) | 32 µg/mL (≈ 16.1 µM) | 32 µg/mL (≈ 16.1 µM) | 2 µg/mL (≈ 1.01 µM) |
| CC(C)C[C@H](NC(=O)[C@H](CC(C)C)NC(=O)[C@H](Cc1ccccc1)NC(=O)[C@H](CCCNC(=N)N)NC(=O)[C@H](CCCNC(=N)N)NC(=O)[C@H](CCCNC(=N)N)NC(=O)[C@H](CC(C)C)NC(=O)[C@H](CC(C)C)NC(=O)[C@H](CCCNC(=N)N)NC(=O)[C@H](CCCNC(=N)N)NC(=O)[C@H](CCC(N)=O)NC(=O)[C@H](Cc1c[nH]c2ccccc12)NC(=O)[C@@H](NC(=O)[C@H](CC(C)C)NC(=O)[C@H](CCCNC(=N)N)NC(=O)[C@H](Cc1ccc(O)cc1)NC(=O)[C@@H](N)CCC(N)=O)C(C)C)C(=O)N[C@@H](CCCCN)C(=O)N[C@@H](C)C(N)=O [QLX-3DV-13] (H-QYRLVWQRRLLRRRFLLKA-NH2) | 2 µg/mL (≈ 0.778 µM) | 4 µg/mL (≈ 1.56 µM) | 8 µg/mL (≈ 3.11 µM) | 16 µg/mL (≈ 6.22 µM) | 4 µg/mL (≈ 1.56 µM) | 64 µg/mL (≈ 24.9 µM) | 2 µg/mL (≈ 0.778 µM) | 32 µg/mL (≈ 12.4 µM) | 16 µg/mL (≈ 6.22 µM) | 16 µg/mL (≈ 6.22 µM) | 16 µg/mL (≈ 6.22 µM) | 64 µg/mL (≈ 24.9 µM) | 32 µg/mL (≈ 12.4 µM) | 4 µg/mL (≈ 1.56 µM) |
| CC[C@H](C)[C@H](NC(=O)[C@@H](NC(=O)[C@@H](N)CCCCN)C(C)C)C(=O)N[C@@H](CC(N)=O)C(=O)N[C@@H](Cc1ccc(O)cc1)C(=O)N[C@@H](CCCCN)C(=O)N[C@@H](CC(C)C)C(=O)N[C@@H](CCCNC(=N)N)C(=O)N[C@@H](Cc1ccccc1)C(=O)N[C@@H](Cc1ccccc1)C(=O)N[C@@H](Cc1c[nH]c2ccccc12)C(=O)N[C@@H](C)C(=O)N1CCC[C@H]1C(=O)N[C@@H](Cc1c[nH]c2ccccc12)C(=O)N[C@@H](Cc1ccccc1)C(=O)N[C@@H](CCCCN)C(=O)N[C@@H](CCCCN)C(=O)N[C@@H](CC(C)C)C(N)=O [QLX-3DV-15] (H-KVINYKLRFFWAPWFKKL-NH2) | 4 µg/mL (≈ 1.68 µM) | 4 µg/mL (≈ 1.68 µM) | 8 µg/mL (≈ 3.36 µM) | 4 µg/mL (≈ 1.68 µM) | 8 µg/mL (≈ 3.36 µM) | 64 µg/mL (≈ 26.8 µM) | 4 µg/mL (≈ 1.68 µM) | 32 µg/mL (≈ 13.4 µM) | 64 µg/mL (≈ 26.8 µM) | 16 µg/mL (≈ 6.71 µM) | 8 µg/mL (≈ 3.36 µM) | 16 µg/mL (≈ 6.71 µM) | 16 µg/mL (≈ 6.71 µM) | 4 µg/mL (≈ 1.68 µM) |
| CC[C@H](C)[C@H](NC(=O)[C@H](CC(C)C)NC(=O)[C@H](C)NC(=O)[C@H](CCCNC(=N)N)NC(=O)[C@@H](N)CCCNC(=N)N)C(=O)N[C@@H](Cc1ccc(O)cc1)C(=O)N[C@@H](CC(N)=O)C(=O)N[C@@H](CC(C)C)C(=O)N[C@H](C(=O)N[C@@H](CCCCN)C(=O)N[C@@H](CCCCN)C(=O)N[C@@H](Cc1c[nH]c2ccccc12)C(=O)N[C@@H](C)C(=O)N[C@@H](Cc1ccc(O)cc1)C(=O)N[C@@H](CO)C(=O)N[C@@H](Cc1ccc(O)cc1)C(=O)N[C@@H](CO)C(=O)N[C@@H](C)C(=O)N[C@H](C(N)=O)[C@@H](C)O)C(C)C [QLX-3DV-16] (H-RRALIYNLVKKWAYSYSAT-NH2) | 16 µg/mL (≈ 6.95 µM) | 8 µg/mL (≈ 3.47 µM) | 8 µg/mL (≈ 3.47 µM) | 16 µg/mL (≈ 6.95 µM) | 4 µg/mL (≈ 1.74 µM) | 16 µg/mL (≈ 6.95 µM) | 16 µg/mL (≈ 6.95 µM) | 16 µg/mL (≈ 6.95 µM) | 128 µg/mL (≈ 55.6 µM) | 64 µg/mL (≈ 27.8 µM) | 128 µg/mL (≈ 55.6 µM) | 128 µg/mL (≈ 55.6 µM) | 128 µg/mL (≈ 55.6 µM) | 4 µg/mL (≈ 1.74 µM) |
| CC[C@H](C)[C@H](N)C(=O)N[C@H](C(=O)N[C@H](C(=O)N[C@@H](CCCNC(=N)N)C(=O)N[C@@H](Cc1ccccc1)C(=O)N[C@@H](CC(C)C)C(=O)N[C@@H](CCCCN)C(=O)N1CCC[C@H]1C(=O)N[C@@H](CCCCN)C(=O)N[C@@H](CC(C)C)C(=O)N[C@@H](CC(C)C)C(=O)N[C@@H](CCCCN)C(=O)N[C@@H](C)C(=O)N[C@@H](CC(C)C)C(=O)N[C@@H](CCCCN)C(N)=O)[C@@H](C)CC)C(C)C [QLX-3DV-19] (H-IVIRFLKPKLLKALK-NH2) | – | 16 µg/mL (≈ 8.99 µM) | 8 µg/mL (≈ 4.5 µM) | 32 µg/mL (≈ 18 µM) | 16 µg/mL (≈ 8.99 µM) | 32 µg/mL (≈ 18 µM) | 16 µg/mL (≈ 8.99 µM) | 32 µg/mL (≈ 18 µM) | 128 µg/mL (≈ 71.9 µM) | 64 µg/mL (≈ 36 µM) | 128 µg/mL (≈ 71.9 µM) | 128 µg/mL (≈ 71.9 µM) | 128 µg/mL (≈ 71.9 µM) | 4 µg/mL (≈ 2.25 µM) |
